Data: PubChem BioAssay (NCI)
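Here, GI50 denotes the concentration required for 50% inhibition of growth.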

Tested on: HL-60(TB) leukemia
Assay: NCI tumour cell line growth inhibition, 384-well format

SMILES: CNNCc1ccc(C(=O)NC(C)C)cc1
- GI50: 12.2 µM
